Assay results: patent US20040071777A1, “Solid dispersions of nitrate active principles” (priority 2000, published 2004)

Assays:
Assay type in all cases: physicochemical
[1] = Dissolution rate of NCX 1022, paddle method, distilled water with 1% w/v Tween 80; settings: within one hour
Protocol: The dissolution rate of the active ingredient from the solid dispersion produced in Example 6 has been compared with the dissolution rate of the pure active ingredient, using the paddle method described in F.U.X. In detail, 40 mg of the solid dispersion or 5 mg of pure NCX 1022 have been placed in a thermostated container at 37° C.±0.5° C. in 500 ml of distilled water including 1% w/v of Tween 80 and kept under stirring at 100 rpm. The quantity of NCX 1022 dissolved has been spectrophotometrically determined in continuous at a wavelength of 240 nm.

[2] = Dissolution rate of NCX4016 under condition of supersaturation, paddle method, distilled water; settings: after 5 minutes, from solid dispersion 2
Protocol: Three samples of microspheres have been exactly weighed so as to have a content of nitroaspirine of 30 mg. This quantity corresponds to about 4 times the solubility in water of the active principle.
The dissolution rate of the active principle from the above mentioned 3 solid dispersions has been compared with the dissolution rate of the pure active principle in micronized form, with the paddle method, described in F.U.X. using the following conditions:
dissolution means: distilled water
stirring rate: 100 r.p.m.
The quantity of NCX 4016 released has been evaluated spectrophotometrically in continuous at a wavelength 232 nm.
The samples have been taken by means of a peristaltic pump at 5 minutes intervals and for the total time of one hour.

[3] = Dissolution rate of NCX4016, paddle method (F.U.X.), 1% sodium lauryl sulphate solution; settings: 900 ml, 37° C., 150 rpm
Protocol: The dissolution rate of the solid dispersion produced in the example 3 has been compared with the dissolution rate of the pure NCX4016 in micronised form using the paddle method described in F.U.X., according to the following operating conditions T=37° C.±0.5° C., stirring rate: 150 rpm, dissolution means: 1% sodium lauryl sulphate solution, dissolution volume: 900 ml.
The quantity of NCX4016 released has been spectrophotometrically evaluated in continuous at a wavelength 232 nm.

Compound | solubilisation [1] [%] | quantity dissolved relative to the solubility of the active ingredient in the dissolution means [2] | percentage of active principle dissolved ([3]; 5 minutes) [%] | percentage of active principle dissolved ([3]; 10 minutes) [%] | percentage of active principle dissolved ([3]; 15 minutes) [%] | percentage of active principle dissolved ([3]; 20 minutes) [%] | percentage of active principle dissolved ([3]; 25 minutes) [%] | percentage of active principle dissolved ([3]; 30 minutes) [%] | percentage of active principle dissolved ([3]; 35 minutes) [%] | percentage of active principle dissolved ([3]; 40 minutes) [%] | percentage of active principle dissolved ([3]; 45 minutes) [%] | percentage of active principle dissolved ([3]; 50 minutes) [%] | percentage of active principle dissolved ([3]; 55 minutes) [%] | percentage of active principle dissolved ([3]; 60 minutes) [%]
C[C@]12CCC(=O)C=C1CC[C@@H]1[C@@H]2[C@@H](O)C[C@@]2(C)[C@H]1CC[C@]2(O)C(=O)COC(=O)c1ccc(CO[N+](=O)[O-])cc1 [NCX 1022, hydroxycortisone 21-[(4′-nitroxymethyl)benzoate]] | 4.3 |  |  |  |  |  |  |  |  |  |  |  |  | 
CC(=O)Oc1ccccc1C(=O)Oc1cccc(CO[N+](=O)[O-])c1 [NCX4016 micronized, 3-(nitroxymethyl)phenyl Ester of 2-acetoxybenzoic Acid] |  | about twice | 17.9 | 39.2 | 53.5 | 60.7 | 71.4 | 77 | 80.9 | 84.4 | 87 | 88.9 | 90.6 | 91.4
